Where two headings read alike, the source gives them in different places.
Experiments:
H460 cells = assay: Proliferation assay in H460 cells (2 hr exposure, AlamarBlue); assay type: cell-based, human; conditions: Homo sapiens, NCI-H460, 2 hrs exposure, wash, 70 hrs growth, read-out: IC 50 in proliferation assay in H460 cells
How it was run: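 H460 cells seeded at 4×10^3/well, grown 24 h, then exposed to compound for 2 h at 37 °C. Drug was washed off and cells were regrown 70 h in fresh medium. Viable cells were read by AlamarBlue, and IC50 was taken as the concentration giving 50% growth inhibition.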

H460 NSCLC xenograft [1] = assay: Example 4-G antitumor efficacy, ectopic H460 NSCLC xenograft model; assay type: in vivo, female nude mice (nu/nu); conditions: ip, Q7D × 3
Description: (§1) Specific pathogen-free homozygous female nude mice (nu/nu, Charles River Laboratories) were used. Mice were given food and water ad libitum and housed in microisolator cages. Four to six week old animals were identified by microchips (Locus Technology, Manchester, Md., USA) at the time of the experiments. All animal studies were approved by the Institutional Animal Care and Use Committee at Threshold Pharmaceuticals, Inc.
(§2) All cell lines were from the American Type Culture Collection (ATCC, Rockville, Md., USA).
(§3) Cells were mixed with Matrigel (50% with exception for 30% in the H460) and 0.2 ml per mouse were subcutaneously implanted to the flank area of the animals. When tumor size reached 100-150 250 mm3, mice were randomized into experimental or vehicle groups with 10 mice/group and treatment was started (Day 1). The tested compounds were formulated in 5% DMSO in D5W. The regimens employed in the examples include IP, QD×5/wk (5 days on, 2 days off) as one cycle, for a total of 2 cycles; IP, once; IP, weekly for total 3 weeks; and IV, weekly for 3 weeks. Tumor growth and body weight were measured twice a week. Tumor volume was calculated as (length×width2)/2. Drug efficacy was assessed as Tumor Growth Inhibition (TGI) and Tumor Growth Delay (TGD). TGI was defined as (1−ΔT/ΔC)×100, where ΔT/ΔC presented the ratio of the change in mean (or median, if variation within the group was relatively large) tumor volume of the treated group and of the control group. TGD was calculated as the extra days for the treated tumor to reach 500 mm3 or 1000 mm3 as compared to the control group. Animals were culled when individual tumor size reached over 2000 mm3 or mean tumor volume exceeded 1000 mm3 in the group. Data are expressed as the mean±SEM. One-way analysis of variance with Dunnett post comparison test (GraphPad Prism 4) or two-tailed student's t-test were used for analysis. A P level <0.05 was considered statistically significant.
(§4) The compounds TH-3040 and TH-3045 were tested in a H460 model. The compounds were dosed as follows. A dose-dependent TH-3040 or TH-3045 was given IP weekly for 3 weeks, from 5 to 45 mg/kg starting at 100 mm^3 tumors on day 1 (10 animals per group average tumor volume). The antitumor effects and the safety of administration are graphically illustrated below.

[2] = Example 4-G body weight change, H460 xenograft study; assay type: in vivo, female nude mice (nu/nu); conditions: ip, Q7D × 3
Procedure: as §3, §4

[3] = system: A 549 non-small cell lung xenograft; assay: Example 4-B antitumor efficacy, ectopic A549 NSCLC xenograft model; assay type: in vivo, female nude mice (nu/nu)
Description: as §1, §2, §3
The dosing was as follows. Daily IP dosing: 5 doses then 2 days off then 5 more doses starting at 110 mm^3 tumors on day 1 (10 animals per group average tumor volume).
Doses were selected by first doing a toxicity test in CD1 mice as described above. The compounds were tested against Thio-tepa.

[4] = Example 4-B body weight change, A549 xenograft study; assay type: in vivo, female nude mice (nu/nu)
Procedure: as §3
Antitumor effects of compounds provided herein were determined on A 549 non-small cell lung xenograft model in comparison with a chemotherapy agent, thiotepa. The dosing was as follows. Daily IP dosing: 5 doses then 2 days off then 5 more doses starting at 110 mm^3 tumors on day 1 (10 animals per group average tumor volume). The antitumor effects and the safety of administration are graphically illustrated below.

[5] = system: A375 melanoma human tumor xenograft; assay: Example 4-C antitumor efficacy, ectopic A375 melanoma xenograft model; assay type: in vivo, female nude mice (nu/nu); conditions: qd × 5 × 2, ip
Description: as §1, §2, §3
his study employed an A375 melanoma human tumor xenograft model and various compounds provided herein were compared to thiotepa and the approved anti melanoma drug, nab-Paclitaxel.

[6] = Example 4-C body weight change, A375 xenograft study; assay type: in vivo, female nude mice (nu/nu); conditions: qd × 5 × 2, ip
Procedure: as §3
his study employed an A375 melanoma human tumor xenograft model and various compounds provided herein were compared to thiotepa and the approved anti melanoma drug, nab-Paclitaxel. The antitumor effects and the safety of administration are graphically illustrated below.

[7] = Pharmacokinetics in CD-1 mice following a single intraperitoneal dose (parent and TH2660); conditions: mouse, in vivo, ip, parent compound
Procedure: The pharmacokinetics of TH2873, TH2883, TH2888, TH2890, TH2901 and TH2926 were determined in CD-1 mice following a single intraperitoneal dose.
The pharmacokinetics of TH2660, the active metabolite, following a single intraperitoneal dose of TH2873, TH2883, TH2888, TH2890, TH2901 and TH2926 are shown below.

A549 NSCLC xenograft = assay: Example 4-D antitumor efficacy, ectopic A549 NSCLC xenograft model; assay type: in vivo, female nude mice (nu/nu); conditions: 40 mg/kg IP QD × 5/wk × 2 wks
Description: as §1, §2, §3
(§5) The compounds were tested in another A549 model. The compounds were dosed as follows. Daily IP dosing: 5 doses then 2 days off then 5 more doses starting at 100 mm^3 tumors on day 1 (10 animals per group average tumor volume). The antitumor effects and the safety of administration are graphically illustrated below.

[8] = Example 4-D body weight change and lethal toxicity, A549 xenograft study; assay type: in vivo, female nude mice (nu/nu); conditions: 40 mg/kg IP QD × 5/wk × 2 wks
Procedure: as §3, §5

H460 NSCLC xenograft [9] = assay: Example 4-F antitumor efficacy, ectopic H460 NSCLC xenograft model; assay type: in vivo, female nude mice (nu/nu); conditions: ip
Description: as §1, §2, §3
(§6) The compounds TH-2953 and TH-3040 were tested in a H460 model. The compounds were dosed as follows. A dose-dependent TH-2953 was given IP once, from 6.25 to 100 mg/kg, comparing with daily IP: 5 doses then 2 days off then 5 more doses starting at 100 mm^3 tumors on day 1 (10 animals per group average tumor volume). TH-3040 was administered IP once. The antitumor effects and the safety of administration are graphically illustrated below.

[10] = Example 4-F body weight change, H460 xenograft study; assay type: in vivo, female nude mice (nu/nu); conditions: ip
Procedure: as §3, §6

[11] = Pharmacokinetics of TH2953 in NU/NU mice with A549 and H460 xenografts; assay type: in vivo, Mouse/Nu-Foxn 1nu NU/NU mice; conditions: Nu-Foxn1nu NU/NU, mouse; for Kp: intraperitoneal, A549 tumor xenograft, 10 and 40 mg/kg ip; for AUC / Cmax / Tmax / half-life: plasma, ip
Procedure: The pharmacokinetics of TH2660, the active metabolite, following a single iintraperitoneal dose of TH2953 are shown below.
A549 and H460, following a single intraperitoneal dose of 10 and 40 mg/kg for A549 and 10 mg/kg for H460. TH2953 concentrations in the brain, liver and tumor were 55.0-73.8%, 297-541% and 2.08-8.34% of the concentrations in plasma in the A549 tumor xenograft. […] In the A549 xenograft, the preferential activation of TH2953 was more pronounced as the concentrations of TH2660 in the tumor were ˜5-7-fold greater than for TH2953, while they were only ˜13-15% in the liver.

[12] = 1.25 mg/kg ip QD × 5/wk × 2 wks
[13] = 10 mg/kg, TH2953 10 mg/kg single ip, A549 xenograft
[14] = 10 mg/kg, TH2953 10 mg/kg single ip, H460 xenograft
[15] = 40 mg/kg, TH2953 40 mg/kg single ip, A549 xenograft

C[C@@H](OP(=O)(N1CC1)N1CC1)c1ccc([N+](=O)[O-])c(Oc2ccc(-c3ccccc3)cc2)c1 [Compound 3045]
IC50 (H460 cells): 4 nM
TGD 500 (H460 NSCLC xenograft [1]; 5 mpk): 48 days
TGI (H460 NSCLC xenograft [1]; 5 mpk): 104.0%
TGD 500 (H460 NSCLC xenograft [1]; 15 mpk): 70 days
TGI (H460 NSCLC xenograft [1]; 15 mpk): 104.8%
TGD 500 (H460 NSCLC xenograft [1]; 45 mpk): 86 days
TGI (H460 NSCLC xenograft [1]; 45 mpk): 106.3%
Max BW loss ([2]; 5 mpk): 0.0%
Max BW loss ([2]; 15 mpk): 2.8%
Max BW loss ([2]; 45 mpk): 2.4%

CN(C)C(=O)c1cccc(Oc2cc(COP(=O)(N3CC3)N3CC3)ccc2[N+](=O)[O-])c1 [Compound 2889]
IC50 (H460 cells): 3 nM
TGD 500 ([3]; 10 mg/kg ip QD × 5/wk × 2 wks): 62 days
TGI ([3]; 10 mg/kg ip QD × 5/wk × 2 wks): 90.1%
Max. BW loss % ([4]; 10 mg/kg ip QD × 5/wk × 2 wks): 1.1%
TGD 500 ([5]; 10 mpk): 13 days
TGD 1000 ([5]; 10 mpk): 15 days
inhibition in vivo at 10 mg/kg ([5]; Mus musculus, A-375, 10 mpk, read-out: TGI): 75.6%
Max. BW loss % ([6]; 10 mpk): 0%
AUC [7]: 598 ng·h/mL
Cmax [7]: 2480 ng/mL
Tmax [7]: 5 min
half-life [7]: 10.3 min

S=P(N1CC1)(N1CC1)N1CC1 [Thio-TEPA, thiotepa, reference compound]
TGD 500 [3, 12]: 17 days
TGI [3, 12]: 56.1%
TGD 500 ([3]; 2.5 mg/kg ip QD × 5/wk × 2 wks): 26 days
TGI ([3]; 2.5 mg/kg ip QD × 5/wk × 2 wks): 68.3%
Max. BW loss % [4, 12]: 0.0%
Max. BW loss % ([4]; 2.5 mg/kg ip QD × 5/wk × 2 wks): 0.4%
TGD 500 ([5]; 2.5 mpk): 3 days
TGD 1000 ([5]; 2.5 mpk): 2 days
inhibition in vivo at 2.5 mg/kg ([5]; Mus musculus, A-375, 2.5 mpk, read-out: TGI): 16.6%
Max. BW loss % ([6]; 2.5 mpk): 0%

CC(OP(=O)(N1CC1)N1CC1)c1ccc([N+](=O)[O-])c(Oc2ccc(-c3ccccc3)cc2)c1 (stereo not shown) [Compound 2953]
IC50 (H460 cells): 5 nM
TGD 500 (A549 NSCLC xenograft): 64 days
TGI (A549 NSCLC xenograft): 93.8%
Max. BW loss % [8]: 1.6%
Lethal Tox ([8]; 10 animals per group): 0
TGD 500 (H460 NSCLC xenograft [9]; 6.25 mpk, once): 16 days
TGD 1000 (H460 NSCLC xenograft [9]; 6.25 mpk, once): 17 days
TGI (H460 NSCLC xenograft [9]; 6.25 mpk, once): 72.2%
TGD 500 (H460 NSCLC xenograft [9]; 12.5 mpk, once): 18 days
TGD 1000 (H460 NSCLC xenograft [9]; 12.5 mpk, once): 21 days
TGI (H460 NSCLC xenograft [9]; 12.5 mpk, once): 78.2%
TGD 500 (H460 NSCLC xenograft [9]; 25 mpk, once): 18 days
TGD 1000 (H460 NSCLC xenograft [9]; 25 mpk, once): 20 days
TGI (H460 NSCLC xenograft [9]; 25 mpk, once): 86.1%
TGD 500 (H460 NSCLC xenograft [9]; 40 mpk, QD × 5/wk × 2ks): 54 days
TGD 1000 (H460 NSCLC xenograft [9]; 40 mpk, QD × 5/wk × 2ks): 65 days
TGI (H460 NSCLC xenograft [9]; 40 mpk, QD × 5/wk × 2ks): 105.8%
TGD 500 (H460 NSCLC xenograft [9]; 50 mpk, once): 19 days
TGD 1000 (H460 NSCLC xenograft [9]; 50 mpk, once): 19 days
TGI (H460 NSCLC xenograft [9]; 50 mpk, once): 90.4%
TGD 500 (H460 NSCLC xenograft [9]; 100 mpk, once): 24 days
TGD 1000 (H460 NSCLC xenograft [9]; 100 mpk, once): 27 days
TGI (H460 NSCLC xenograft [9]; 100 mpk, once): 97.7%
Max. BW loss % ([10]; 6.25 mpk, once): 0.0%
Max. BW loss % ([10]; 12.5 mpk, once): 0.0%
Max. BW loss % ([10]; 25 mpk, once): 0.2%
Max. BW loss % ([10]; 40 mpk, QD × 5/wk × 2ks): 0.0%
Max. BW loss % ([10]; 50 mpk, once): 0.0%
Max. BW loss % ([10]; 100 mpk, once): 0.0%
Kp ([11]; brain (relative to plasma), read-out: concentration in the brain as % of the concentrations in plasma): 0.55 to 0.738
Kp ([11]; liver (relative to plasma), read-out: concentration in the liver as % of the concentrations in plasma): 2.97 to 5.41
AUC [11, 13]: 4430 ng·h/mL
Cmax [11, 13]: 149 ng/mL
Tmax [11, 13]: 30 min
half-life [11, 13]: 100 min
AUC [11, 14]: 7400 ng·h/mL
Cmax [11, 14]: 2330 ng/mL
Tmax [11, 14]: 15 min
half-life [11, 14]: 142 min
AUC [11, 15]: 39000 ng·h/mL
Cmax [11, 15]: 14800 ng/mL
Tmax [11, 15]: 30 min
half-life [11, 15]: 91.3 min
Kp ([11]; tumor (relative to plasma), read-out: concentration in the tumor as % of the concentrations in plasma): 0.0208 to 0.0834
